# Measured values from publication PMC11660126, “Demethylzeylasteral inhibits oxidative phosphorylation complex biogenesis by targeting LRPPRC in lung cancer” (Journal of Cancer, 2025).
# Target: T1, LRPPRC (Leucine-rich pentatricopeptide repeat-containing protein) (Homo sapiens, UniProt P42704)
# T1 construct: GST fusion)
# Experiment: Intrinsic fluorescence quenching titration of purified LRPPRCΔ[…]; confirmed by BLI (KD […]) and CETSA in A549 and H1299 cells
# Assay type: binding
# T1 sequence (P42704 1121-1394): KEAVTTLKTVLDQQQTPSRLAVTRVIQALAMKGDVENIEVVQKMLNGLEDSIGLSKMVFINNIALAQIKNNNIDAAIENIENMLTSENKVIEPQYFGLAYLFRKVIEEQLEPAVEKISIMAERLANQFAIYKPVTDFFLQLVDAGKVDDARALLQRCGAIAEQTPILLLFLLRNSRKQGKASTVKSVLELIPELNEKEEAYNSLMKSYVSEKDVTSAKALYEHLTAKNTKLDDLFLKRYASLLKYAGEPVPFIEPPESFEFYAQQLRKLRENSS
smiles,measurement,value
"C[C@@]1(C(=O)O)CC[C@]2(C)CC[C@]3(C)C4=CC(=O)c5c(cc(O)c(O)c5C=O)[C@]4(C)CC[C@@]3(C)[C@@H]2C1 [T-96, Demethylzeylasteral]",Kd,21.4 µM
